Data from the supplement of paper PMC10307832.

What was measured:
Assay in all cases: relative viability (nuclei count vs DMSO), 5 days (fraction); higher = more cells survive
[1] = compound: CC1=CC=C(C=C1)C(=O)CN2C3=C(CCCC3)SC2=N [Pifithrin_alpha] + O=C(c1cc(Cc2n[nH]c(=O)c3ccccc23)ccc1F)N1CCN(C(=O)C2CC2)CC1 [Olaparib] (partner 8 µM)
In short: (§1)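 Lung cancer cell lines in 1536-well plates got either a single drug or a fixed anchor-drug dose together with five library-drug doses (not always all listed) in √10 steps, by pin tool, on the day after seeding. Nuclei were counted after 5 days, and relative viability is the treated-to-vehicle ratio of nuclei counts. Values are medians of duplicate plates.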

[2] = compound: Nc1nc(Nc2ccc3c(c2)CC[C@@H](N2CCCC2)CC3)nn1-c1cc2c(nn1)-c1ccccc1CCC2 [Bemcentinib] + Nc1ncn([C@H]2C[C@H](O)[C@@H](CO)O2)c(=O)n1 [Decitabine] (partner 2 µM)
In short: as §1

[3] = compound: CNC(=O)c1ccccc1Sc1ccc2c(/C=C/c3ccccn3)n[nH]c2c1 [Axitinib] + COc1cc2c(Oc3ccc(NC(=O)C4(C(=O)Nc5ccc(F)cc5)CC4)cc3F)ccnc2cc1OCCCN1CCOCC1 [Foretinib] (partner 0.25 µM)
In short: as §1

[4] = compound: CNC(=O)c1ccccc1Sc1ccc2c(/C=C/c3ccccn3)n[nH]c2c1 [Axitinib] + CC(=O)c1c(C)c2cnc(Nc3ccc(N4CCNCC4)cn3)nc2n(C2CCCC2)c1=O [Palbociclib] (partner 0.5 µM)
In short: as §1

Row | Cell Line | relative viability ([1]; first compound 1 µM) | relative viability ([1]; first compound 3.162 µM) | relative viability ([1]; first compound 10 µM) | relative viability ([1]; first compound 31.62 µM) | relative viability ([1]; first compound 100 µM) | relative viability ([2]; first compound 0.04 µM) | relative viability ([2]; first compound 0.1265 µM) | relative viability ([2]; first compound 0.4 µM) | relative viability ([2]; first compound 1.265 µM) | relative viability ([2]; first compound 4 µM) | relative viability ([3]; first compound 0.005 µM) | relative viability ([3]; first compound 0.01581 µM) | relative viability ([3]; first compound 0.05 µM) | relative viability ([3]; first compound 0.1581 µM) | relative viability ([3]; first compound 0.5 µM) | relative viability ([4]; first compound 0.005 µM) | relative viability ([4]; first compound 0.01581 µM) | relative viability ([4]; first compound 0.05 µM) | relative viability ([4]; first compound 0.1581 µM) | relative viability ([4]; first compound 0.5 µM)
1 | NCI-H2087 | 0.617 | 0.614 | 0.524 | 0.236 | 0.469 | 0.295 | 0.318 | 0.281 | 0.265 | 0.302 | 1.09 | 0.97 | 0.937 | 1.15 | 1.21 | 0.251 | 0.202 | 0.294 | 0.265 | 0.255
2 | NCI-H2126 | 0.91 | 1.01 | 0.924 | 0.691 | 0.927 | 0.582 | 0.588 | 0.601 | 0.634 | 0.557 | 1.27 | 0.967 | 1.09 | 1.21 | 1.26 | 0.345 | 0.348 | 0.347 | 0.327 | 0.343
3 | NCI-H2170 | 0.657 | 0.593 | 0.541 | 0.309 | 0.551 | 0.457 | 0.48 | 0.463 | 0.519 | 0.479 | 1.02 | 0.716 | 1.03 | 0.939 | 1.01 | 0.494 | 0.438 | 0.385 | 0.444 | 0.435
4 | NCI-H2342 | 0.519 | 0.415 | 0.42 | 0.373 | 0.43 | 0.746 | 0.768 | 0.771 | 0.73 | 0.827 | 1.29 | 1.04 | 0.982 | 1.02 | 1.07 | 0.503 | 0.524 | 0.536 | 0.614 | 0.485
5 | NCI-H2347 | 0.603 | 0.573 | 0.587 | 0.541 | 0.547 | 0.653 | 0.573 | 0.665 | 0.678 | 0.639 | 0.954 | 0.747 | 1.12 | 1.11 | 0.799 | 0.42 | 0.411 | 0.436 | 0.434 | 0.362
6 | NCI-H2405 | – | 0.775 | 0.725 | 0.51 | 0.644 | 0.74 | 0.717 | 0.799 | 0.821 | 0.761 | 1.03 | 1.04 | 1.13 | 1.03 | 1.15 | 0.505 | 0.524 | 0.542 | 0.517 | 0.537
7 | NCI-H3122 | 0.635 | 0.48 | 0.511 | 0.291 | 0.389 | 0.429 | 0.385 | 0.456 | 0.449 | 0.491 | 0.928 | 0.847 | 1.02 | 1.01 | 0.951 | 0.171 | 0.198 | 0.205 | 0.206 | 0.184
8 | PC-3 [JPC-3] | – | 1.11 | – | 0.564 | 0.764 | 0.773 | 0.897 | 0.804 | 0.822 | 0.804 | 1.01 | 0.988 | 1.02 | 1 | 1.23 | 0.558 | – | 0.556 | 0.603 | 0.61
9 | PC-14 | 0.253 | 0.319 | 0.218 | 0.188 | 0.111 | 0.209 | 0.213 | 0.204 | 0.176 | 0.197 | 0.92 | 0.819 | 0.989 | 0.861 | 1.03 | 0.498 | 0.427 | 0.511 | 0.563 | 0.71
10 | RERF-LC-KJ | 0.779 | 0.4 | 0.215 | 0.178 | 0.175 | 0.676 | 0.729 | 0.784 | 0.855 | 0.752 | 0.916 | 0.892 | 0.887 | 0.86 | 0.854 | 1.09 | 1.16 | 1.03 | 1.14 | 1.11
11 | SK-LU-1 | 0.418 | 0.486 | 0.453 | 0.354 | 0.457 | 0.533 | 0.764 | 0.74 | 0.615 | 0.623 | 0.904 | 0.959 | 0.929 | 0.849 | 1.1 | 0.433 | 0.406 | 0.38 | 0.368 | 0.355
12 | SK-MES-1 | 0.479 | 0.493 | 0.292 | 0.241 | 0.373 | 0.363 | 0.361 | 0.451 | 0.315 | 0.379 | 0.976 | 0.977 | 1.02 | 0.925 | 0.951 | 0.309 | 0.332 | 0.347 | 0.344 | 0.353
13 | SW 900 | 0.646 | 0.57 | 0.56 | 0.378 | 0.487 | 0.406 | 0.479 | 0.432 | 0.428 | 0.398 | 1.02 | 0.673 | 0.941 | 1.01 | 1.12 | 0.629 | – | 0.587 | 0.502 | 0.6
14 | SW 1573 | 0.493 | 0.466 | 0.413 | – | 0.342 | 0.427 | 0.55 | 0.595 | 0.544 | 0.468 | 0.743 | 0.915 | 1.26 | 0.811 | 0.989 | 0.36 | 0.448 | 0.395 | 0.384 | 0.473
15 | UMC-11 | 0.367 | 0.365 | 1.09 | 0.402 | 0.249 | 0.576 | 0.565 | 0.521 | 0.628 | 0.58 | 1.01 | 1.1 | 1.03 | 1.1 | 1.1 | 0.316 | 0.318 | 0.313 | 0.302 | 0.311
